Test system: WT MEF EVs
Assay: Quantitative LC-MS/MS proteomics of EVs from ISRIB-treated WT MEF cultures
Format: cell-based, mouse
Design: key to ISRIB and DYT Parallel Direction / ISRIB and DYT Parallel Direction, Ctdsp1 / ISRIB and DYT Parallel Direction, Pcdh19 / ISRIB and DYT Parallel Direction, Tspan7 / ISRIB and DYT Parallel Direction, Myo1e / ISRIB and DYT Parallel Direction, Plpp3 / ISRIB and DYT Parallel Direction, Sh3bp4 / ISRIB and DYT Parallel Direction, Dnajc7 / ISRIB and DYT Parallel Direction, Drg1 / ISRIB and DYT Parallel Direction, Maea: YES = protein abundance effect similar to DYT/WT

Question: For `O=C(COc1ccc(Cl)cc1)NC1CCC(NC(=O)COc2ccc(Cl)cc2)CC1` (stereo not shown) [ISRIB, reference compound], which “genotype-disrupted proteins (n=363) reproduced by ISRIB” value (50 nM, 24 h, p<0.05) is on record?
Answer: Its value is 7%.

Question: And the “EV proteins disrupted by ISRIB treatment of WT cells” value (50 nM, 24 h, p<0.05, of 1974 proteins)?
Answer: Its value is 5%.

Question: And the “WT + ISRIB/WT Cohen's d, Brd4” value (EV protein Brd4 (Q9ESU6))?
Answer: Its value is 0.37.

Question: And the “WT + ISRIB/WT Cohen's d, Cdk11b” value (EV protein Cdk11b (P24788))?
Answer: Its value is 4.28.

Question: What about the “WT + ISRIB/WT Cohen's d, Cfdp1” value (EV protein Cfdp1 (O88271)) of the same compound?
Answer: Its value is 8.58.

Question: And the “WT + ISRIB/WT Cohen's d, Cstf1” value (EV protein Cstf1 (Q99LC2))?
Answer: Its value is 1.34.

Question: And the “WT + ISRIB/WT Cohen's d, Ctdsp1” value (EV protein Ctdsp1 (P58466))?
Answer: The value was −10.61.

Question: And the “ISRIB and DYT Parallel Direction, Ctdsp1” value (EV protein Ctdsp1 (P58466), WT + ISRIB vs WT)?
Answer: The value was “YES”.

Question: What about the “WT + ISRIB/WT Cohen's d, Dcaf8” value (EV protein Dcaf8 (Q8N7N5)) of the same compound?
Answer: The value was 0.84.

Question: And the “WT + ISRIB/WT Cohen's d, Dnajc7” value (EV protein Dnajc7 (Q9QYI3))?
Answer: Its value is −2.37.

Question: And the “ISRIB and DYT Parallel Direction, Dnajc7” value (EV protein Dnajc7 (Q9QYI3), WT + ISRIB vs WT)?
Answer: The value was “YES”.

Question: What about the “WT + ISRIB/WT Cohen's d, Drg1” value (EV protein Drg1 (P32233)) of the same compound?
Answer: The value was −1.58.

Question: What about the “ISRIB and DYT Parallel Direction, Drg1” value (EV protein Drg1 (P32233), WT + ISRIB vs WT) of the same compound?
Answer: Its value is “YES”.

Question: And the “WT + ISRIB/WT Cohen's d, Edil3” value (EV protein Edil3 (O35474))?
Answer: The value was 3.24.

Question: What about the “WT + ISRIB/WT Cohen's d, Grwd1” value (EV protein Grwd1 (Q810D6)) of the same compound?
Answer: Its value is 4.92.

Question: And the “WT + ISRIB/WT Cohen's d, Heatr3” value (EV protein Heatr3 (Q8BQM4))?
Answer: The value was 1.40.

Question: What about the “WT + ISRIB/WT Cohen's d, Hmga2” value (EV protein Hmga2 (P52927)) of the same compound?
Answer: Its value is 0.21.

Question: And the “WT + ISRIB/WT Cohen's d, Kntc1” value (EV protein Kntc1 (Q8C3Y4))?
Answer: Its value is 0.31.

Question: And the “WT + ISRIB/WT Cohen's d, Lpar6” value (EV protein Lpar6 (Q8BMC0))?
Answer: Its value is −1.25.

Question: What about the “WT + ISRIB/WT Cohen's d, Lsm4” value (EV protein Lsm4 (Q9QXA5)) of the same compound?
Answer: Its value is 0.61.

Question: What about the “WT + ISRIB/WT Cohen's d, Maea” value (EV protein Maea (Q4VC33)) of the same compound?
Answer: Its value is −2.82.

Question: What about the “ISRIB and DYT Parallel Direction, Maea” value (EV protein Maea (Q4VC33), WT + ISRIB vs WT) of the same compound?
Answer: The value was “YES”.

Question: What about the “WT + ISRIB/WT Cohen's d, Myo1e” value (EV protein Myo1e (E9Q634)) of the same compound?
Answer: Its value is −1.56.

Question: And the “ISRIB and DYT Parallel Direction, Myo1e” value (EV protein Myo1e (E9Q634), WT + ISRIB vs WT)?
Answer: The value was “YES”.

Question: And the “WT + ISRIB/WT Cohen's d, Naa50” value (EV protein Naa50 (Q6PGB6))?
Answer: Its value is 1.03.

Question: What about the “WT + ISRIB/WT Cohen's d, Ndrg1” value (EV protein Ndrg1 (Q62433)) of the same compound?
Answer: The value was 1.14.

Question: And the “WT + ISRIB/WT Cohen's d, P3h4” value (EV protein P3h4 (Q8K2B0))?
Answer: Its value is 1.07.

Question: What about the “WT + ISRIB/WT Cohen's d, Pacsin3” value (EV protein Pacsin3 (Q99JB8)) of the same compound?
Answer: Its value is −2.60.

Question: What about the “WT + ISRIB/WT Cohen's d, Pcdh19” value (EV protein Pcdh19 (Q80TF3)) of the same compound?
Answer: Its value is −2.26.

Question: And the “ISRIB and DYT Parallel Direction, Pcdh19” value (EV protein Pcdh19 (Q80TF3), WT + ISRIB vs WT)?
Answer: The value was “YES”.

Question: What about the “WT + ISRIB/WT Cohen's d, Plpp3” value (EV protein Plpp3 (Q99JY8)) of the same compound?
Answer: The value was 4.49.

Question: What about the “ISRIB and DYT Parallel Direction, Plpp3” value (EV protein Plpp3 (Q99JY8), WT + ISRIB vs WT) of the same compound?
Answer: Its value is “YES”.

Question: What about the “WT + ISRIB/WT Cohen's d, Rbm17” value (EV protein Rbm17 (Q8JZX4)) of the same compound?
Answer: Its value is 0.36.

Question: What about the “WT + ISRIB/WT Cohen's d, Sbno1” value (EV protein Sbno1 (Q689Z5)) of the same compound?
Answer: The value was 0.31.

Question: What about the “WT + ISRIB/WT Cohen's d, Sec61b” value (EV protein Sec61b (Q9CQS8)) of the same compound?
Answer: The value was 3.71.

Question: And the “WT + ISRIB/WT Cohen's d, Sh3bp4” value (EV protein Sh3bp4 (Q921I6))?
Answer: Its value is −0.29.

Question: And the “ISRIB and DYT Parallel Direction, Sh3bp4” value (EV protein Sh3bp4 (Q921I6), WT + ISRIB vs WT)?
Answer: The value was “YES”.

Question: What about the “WT + ISRIB/WT Cohen's d, Srrm2” value (EV protein Srrm2 (Q8BTI8)) of the same compound?
Answer: The value was 0.17.

Question: What about the “WT + ISRIB/WT Cohen's d, Sumo1” value (EV protein Sumo1 (P63166)) of the same compound?
Answer: Its value is 5.82.

Question: And the “WT + ISRIB/WT Cohen's d, Tes” value (EV protein Tes (P47226))?
Answer: The value was 1.50.

Question: And the “WT + ISRIB/WT Cohen's d, Timp3” value (EV protein Timp3 (P39876))?
Answer: Its value is −3.42.

Question: What about the “WT + ISRIB/WT Cohen's d, Tspan7” value (EV protein Tspan7 (Q62283)) of the same compound?
Answer: The value was −0.21.

Question: And the “ISRIB and DYT Parallel Direction, Tspan7” value (EV protein Tspan7 (Q62283), WT + ISRIB vs WT)?
Answer: The value was “YES”.

Question: What about the “WT + ISRIB/WT Cohen's d, Unc119b” value (EV protein Unc119b (Q8C4B4)) of the same compound?
Answer: The value was 0.17.

Question: And the “proteins reduced in both mouse and human EVs whose abundance is modulated toward DYT1-like in WT cells (and toward correction by salubrinal in DYT1 cells)” value (ISRIB)?
Answer: Its value is 4 of the 7.

Question: And the “Acaa1a (ACAA1) EV abundance Cohen's d” value (WT+ISRIB/WT, 50 nM, 24 h)?
Answer: Its value is −0.8751.

Question: And the “Acaa1a (ACAA1) EV abundance Log2_FC” value (WT+ISRIB/WT, 50 nM, 24 h)?
Answer: The value was −0.6305.

Question: And the “Ano6 (ANO6) EV abundance Cohen's d” value (WT+ISRIB/WT, 50 nM, 24 h)?
Answer: Its value is 0.8352.

Question: And the “Ano6 (ANO6) EV abundance Log2_FC” value (WT+ISRIB/WT, 50 nM, 24 h)?
Answer: Its value is 0.2496.

Question: What about the “Ap1b1 (AP1B1) EV abundance Cohen's d” value (WT+ISRIB/WT, 50 nM, 24 h) of the same compound?
Answer: The value was −0.2382.

Question: And the “Ap1b1 (AP1B1) EV abundance Log2_FC” value (WT+ISRIB/WT, 50 nM, 24 h)?
Answer: Its value is −0.1813.

Question: What about the “Arl8b (ARL8B) EV abundance Cohen's d” value (WT+ISRIB/WT, 50 nM, 24 h) of the same compound?
Answer: Its value is −0.8778.

Question: And the “Arl8b (ARL8B) EV abundance Log2_FC” value (WT+ISRIB/WT, 50 nM, 24 h)?
Answer: The value was −0.2989.

Question: And the “Bzw2 (BZW2) EV abundance Cohen's d” value (WT+ISRIB/WT, 50 nM, 24 h)?
Answer: Its value is −0.9186.

Question: What about the “Bzw2 (BZW2) EV abundance Log2_FC” value (WT+ISRIB/WT, 50 nM, 24 h) of the same compound?
Answer: Its value is 0.7265.

Question: And the “Cryab (CRYAB) EV abundance Cohen's d” value (WT+ISRIB/WT, 50 nM, 24 h)?
Answer: Its value is −0.1165.

Question: What about the “Cryab (CRYAB) EV abundance Log2_FC” value (WT+ISRIB/WT, 50 nM, 24 h) of the same compound?
Answer: Its value is 0.1177.

Question: And the “DIst (DLST) EV abundance Cohen's d” value (WT+ISRIB/WT, 50 nM, 24 h)?
Answer: The value was 0.6821.

Question: What about the “DIst (DLST) EV abundance Log2_FC” value (WT+ISRIB/WT, 50 nM, 24 h) of the same compound?
Answer: Its value is −1.897.

Question: What about the “Ehd4 (EHD4) EV abundance Cohen's d” value (WT+ISRIB/WT, 50 nM, 24 h) of the same compound?
Answer: Its value is −1.159.

Question: What about the “Ehd4 (EHD4) EV abundance Log2_FC” value (WT+ISRIB/WT, 50 nM, 24 h) of the same compound?
Answer: Its value is −0.09267.

Question: And the “Flna (FLNA) EV abundance Cohen's d” value (WT+ISRIB/WT, 50 nM, 24 h)?
Answer: Its value is −0.09039.

Question: What about the “Flna (FLNA) EV abundance Log2_FC” value (WT+ISRIB/WT, 50 nM, 24 h) of the same compound?
Answer: Its value is −0.2341.

Question: What about the “Fscn1 (FSCN1) EV abundance Cohen's d” value (WT+ISRIB/WT, 50 nM, 24 h) of the same compound?
Answer: Its value is −0.9728.

Question: And the “Fscn1 (FSCN1) EV abundance Log2_FC” value (WT+ISRIB/WT, 50 nM, 24 h)?
Answer: The value was −0.2944.

Question: What about the “Gart (GART) EV abundance Cohen's d” value (WT+ISRIB/WT, 50 nM, 24 h) of the same compound?
Answer: Its value is −0.1196.

Question: And the “Gart (GART) EV abundance Log2_FC” value (WT+ISRIB/WT, 50 nM, 24 h)?
Answer: Its value is −0.2546.

Question: What about the “Hist1h1b (H1-5) EV abundance Cohen's d” value (WT+ISRIB/WT, 50 nM, 24 h) of the same compound?
Answer: Its value is −0.4556.

Question: What about the “Hist1h1b (H1-5) EV abundance Log2_FC” value (WT+ISRIB/WT, 50 nM, 24 h) of the same compound?
Answer: Its value is −0.08676.

Question: What about the “Hnrnpc (HNRNPC) EV abundance Cohen's d” value (WT+ISRIB/WT, 50 nM, 24 h) of the same compound?
Answer: The value was 1.199.

Source: US20260266848A1, “COMPOSITIONS AND METHODS FOR DIAGNOSING AND TREATING DYSTONIA” (Duke University, priority 2023, published 2026)
